Laboratory results published in ChEMBL document CHEMBL2439969, “Replacement of Thr32 and Gln34 in the C-terminal neuropeptide Y fragment 25-36 by cis-cyclobutane and cis-cyclopentane β-amino acids shifts selectivity toward the Y(4) receptor” (J Med Chem, 2013).
Residues, ends and D or L forms follow the SMILES beside them.

Experiments:
[1] = target: T1, Neuropeptide Y receptor type 5 (Homo sapiens, UniProt Q15761); assay: Displacement of Cy5-pNPY from human Y5 receptor expressed in human HEC-1B cells after 90 to 120 mins by flow cytometry; type: cell-based
T1 sequence (Q15761 whole entry): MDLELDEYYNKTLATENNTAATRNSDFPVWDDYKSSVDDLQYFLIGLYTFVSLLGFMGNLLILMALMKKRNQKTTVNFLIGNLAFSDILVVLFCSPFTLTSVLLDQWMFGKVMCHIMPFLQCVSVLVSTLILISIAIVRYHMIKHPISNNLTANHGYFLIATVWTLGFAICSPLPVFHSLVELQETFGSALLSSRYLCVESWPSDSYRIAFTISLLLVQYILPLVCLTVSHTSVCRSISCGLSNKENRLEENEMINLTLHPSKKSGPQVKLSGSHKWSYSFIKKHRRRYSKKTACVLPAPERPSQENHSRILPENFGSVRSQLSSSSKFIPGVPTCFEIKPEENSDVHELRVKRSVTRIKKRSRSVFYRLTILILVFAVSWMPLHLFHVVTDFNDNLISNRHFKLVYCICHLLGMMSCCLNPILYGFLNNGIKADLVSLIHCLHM

[2] = target: T2, Neuropeptide Y receptor type 4 (Homo sapiens, UniProt P50391); assay: Displacement of Cy5-[K4]hPP from human Y4 receptor expressed in CHO cells after 90 to 120 mins by flow cytometry; type: cell-based
T2 sequence (P50391 whole entry): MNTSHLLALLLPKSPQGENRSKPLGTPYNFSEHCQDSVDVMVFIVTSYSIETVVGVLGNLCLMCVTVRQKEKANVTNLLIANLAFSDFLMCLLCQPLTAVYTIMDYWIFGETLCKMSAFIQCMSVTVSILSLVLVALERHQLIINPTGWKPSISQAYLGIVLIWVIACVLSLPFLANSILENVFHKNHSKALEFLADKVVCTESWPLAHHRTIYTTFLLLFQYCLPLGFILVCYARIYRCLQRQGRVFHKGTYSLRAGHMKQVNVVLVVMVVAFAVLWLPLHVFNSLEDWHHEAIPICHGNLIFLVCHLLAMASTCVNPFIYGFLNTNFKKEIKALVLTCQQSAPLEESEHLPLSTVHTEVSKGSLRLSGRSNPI

[3] = target: T2, Neuropeptide Y receptor type 4; assay: Partial agonist activity at human Y4 receptor expressed in sf9 cells assessed as hydrolysis of [gamma-33P]GTP after 2 mins by scintillation counting analysis
[4] = target: T3, Neuropeptide Y receptor type 2 (Homo sapiens, UniProt P49146); assay: Displacement of Cy5-pNPY from human Y2 receptor expressed in CHO cells after 90 to 120 mins by flow cytometry; type: cell-based
T3 sequence (P49146 whole entry): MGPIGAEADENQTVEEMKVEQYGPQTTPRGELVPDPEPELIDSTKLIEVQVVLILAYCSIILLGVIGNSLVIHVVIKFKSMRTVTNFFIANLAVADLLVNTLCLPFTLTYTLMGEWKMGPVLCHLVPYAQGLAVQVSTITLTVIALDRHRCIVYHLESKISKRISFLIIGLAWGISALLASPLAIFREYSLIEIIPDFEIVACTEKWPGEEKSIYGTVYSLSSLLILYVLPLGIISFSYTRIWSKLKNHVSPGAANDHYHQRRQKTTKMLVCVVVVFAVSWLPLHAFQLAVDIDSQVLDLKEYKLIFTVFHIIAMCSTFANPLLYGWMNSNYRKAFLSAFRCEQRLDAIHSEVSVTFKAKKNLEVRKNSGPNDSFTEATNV

[5] = target: T2, Neuropeptide Y receptor type 4; assay: Partial agonist activity at human Y4 receptor expressed in sf9 cells assessed as hydrolysis of [gamma-33P]GTP after 2 mins by scintillation counting analysis relative to hPP
[6] = target: T4, Neuropeptide Y receptor type 1 (Homo sapiens, UniProt P25929); assay: Displacement of Cy5-pNPY from human Y1 receptor expressed in HEL cells after 90 to 120 mins by flow cytometry; type: cell-based
T4 sequence (P25929 whole entry): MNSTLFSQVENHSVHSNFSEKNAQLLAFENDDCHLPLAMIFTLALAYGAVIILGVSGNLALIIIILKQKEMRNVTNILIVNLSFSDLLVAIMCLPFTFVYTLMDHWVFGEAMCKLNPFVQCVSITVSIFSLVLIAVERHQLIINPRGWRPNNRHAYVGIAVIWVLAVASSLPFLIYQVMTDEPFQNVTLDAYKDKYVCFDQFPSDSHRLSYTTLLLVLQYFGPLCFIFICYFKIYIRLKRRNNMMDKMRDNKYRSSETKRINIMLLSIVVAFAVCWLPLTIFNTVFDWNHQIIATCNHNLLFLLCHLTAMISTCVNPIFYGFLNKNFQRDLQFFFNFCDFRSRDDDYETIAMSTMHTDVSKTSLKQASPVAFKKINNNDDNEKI

[7] = target: T4, Neuropeptide Y receptor type 1; assay: Binding affinity to Y1 receptor (unknown origin)
[8] = target: T1, Neuropeptide Y receptor type 5; assay: Binding affinity to Y5 receptor (unknown origin)
[9] = Binding affinity to Y2 receptor (unknown origin); parameters: species or system Homo sapiens
[10] = target: T2, Neuropeptide Y receptor type 4; assay: Binding affinity to human Y4 receptor
[11] = target: T2, Neuropeptide Y receptor type 4; assay: Agonist activity at human Y4 receptor
[12] = target: T2, Neuropeptide Y receptor type 4; assay: Agonist activity at human Y4 receptor expressed in sf9 cells assessed as hydrolysis of [gamma-33P]GTP after 2 mins by scintillation counting analysis
[13] = target: T3, Neuropeptide Y receptor type 2; assay: Binding affinity to human Y2 receptor expressed in human SMS-KAN cells by radioligand binding assay; type: cell-based
[14] = Binding affinity to rabbit kidney Y2 receptor by radioligand binding assay; parameters: species or system Oryctolagus cuniculus
[15] = target: T3, Neuropeptide Y receptor type 2; assay: Binding affinity to Y2 receptor (unknown origin) expressed in human LN319 cells by radioligand binding assay; type: cell-based

Row | Ki [1] | Ki [2] | Ki [4] | Ki [6] | Compound | also measured
1 | > 1000 nM | 75 nM | > 1000 nM | 281 nM | CCCC[C@H](NC(=O)[C@H](CC(N)=O)NC(=O)[C@@H](NC(=O)[C@H](Cc1ccc(O)cc1)NC(=O)[C@H](CCCNC(=N)N)NC(=O)[C@H](CCCNC(=N)N)NC(C)=O)[C@@H](C)CC)C(=O)N[C@@H](CC(C)C)C(=O)N[C@H](C(=O)N[C@@H](CCCNC(=N)N)C(=O)N1CCC[C@H]1C(=O)N[C@@H](CCCNC(=N)N)C(=O)N[C@@H](Cc1ccc(O)cc1)C(N)=O)[C@@H](C)O (HELM PEPTIDE1{[ac].R.R.Y.I.N.[Nle].L.T.R.P.R.Y.[am]}$$$$V2.0) | EC50 [3]: 53 nM; Emax [5]: 70%
2 | > 500 nM | 10 nM | > 1000 nM | > 1000 nM | CC[C@H](C)[C@H](NC(=O)[C@H](Cc1ccc(O)cc1)NC(=O)[C@H](Cc1cnc[nH]1)NC(=O)[C@H](CCCN=C(N)N)NC(C)=O)C(=O)N[C@@H](CC(N)=O)C(=O)N[C@@H](CC(C)C)C(=O)N[C@H](C(=O)N[C@H](C(=O)N[C@@H](CCCN=C(N)N)C(=O)N[C@H]1CCC[C@H]1C(=O)N[C@@H](CCCN=C(N)N)C(=O)N[C@@H](Cc1ccc(O)cc1)C(N)=O)[C@@H](C)O)[C@@H](C)CC (HELM PEPTIDE1{[ac].R.H.Y.I.N.L.I.T.R.[O=C([C@@H]1CCC[C@@H]1N[*:1])[*:2]].R.Y.[am]}$$$$V2.0) | EC50 [3]: 41 nM

The remaining lines, values behind:

Row | Compound | Ki [1] | Ki [2] | Ki [4] | Ki [6] | also measured
3 | CC[C@H](C)[C@H](NC(=O)[C@H](Cc1ccc(O)cc1)NC(=O)[C@H](Cc1cnc[nH]1)NC(=O)[C@H](CCCN=C(N)N)NC(C)=O)C(=O)N[C@@H](CC(N)=O)C(=O)N[C@@H](CC(C)C)C(=O)N[C@@H](CCCN=C(N)N)C(=O)N[C@@H]1[C@H](C(=O)N[C@@H](CCCN=C(N)N)C(=O)N[C@@H]2[C@H](C(=O)N[C@@H](CCCN=C(N)N)C(=O)N[C@@H](Cc3ccc(O)cc3)C(N)=O)[C@H]2C(=O)OC)[C@H]1C(=O)OC (HELM PEPTIDE1{[ac].R.H.Y.I.N.L.R.[COC(=O)[C@H]1[C@H](N[*:1])[C@@H]1C(=O)[*:2]].R.[COC(=O)[C@H]1[C@H](N[*:1])[C@@H]1C(=O)[*:2]].R.Y.[am]}$$$$V2.0) |  |  |  |  | Ki [7]: 50 nM; Ki [8]: 617 nM
4 | Ac-RHYINLIYRLRY-NH2 |  |  |  |  | IC50 [9]: 12 nM
5 | CC[C@H](C)[C@H](NC(=O)[C@H](CC(C)C)NC(=O)[C@H](CCSC)NC(=O)[C@H](CC(N)=O)NC(=O)[C@@H](NC(=O)[C@H](Cc1ccc(O)cc1)NC(=O)[C@H](CCCNC(=N)N)NC(=O)[C@H](CCCNC(=N)N)NC(=O)[C@H](CC(C)C)NC(=O)[C@H](CC(=O)O)NC(=O)[C@H](C)NC(=O)[C@H](C)NC(=O)[C@H](Cc1ccc(O)cc1)NC(=O)[C@H](CCC(N)=O)NC(=O)[C@H](C)NC(=O)[C@H](CCSC)NC(=O)[C@H](CCC(N)=O)NC(=O)[C@H](CCC(=O)O)NC(=O)[C@@H]1CCCN1C(=O)[C@@H](NC(=O)[C@H](C)NC(=O)[C@H](CC(N)=O)NC(=O)[C@H](CC(=O)O)NC(=O)CNC(=O)[C@@H]1CCCN1C(=O)[C@H](Cc1ccc(O)cc1)NC(=O)[C@@H](NC(=O)[C@@H]1CCCN1C(=O)[C@H](CCC(=O)O)NC(=O)[C@H](CC(C)C)NC(=O)[C@@H]1CCCN1C(=O)[C@H](C)N)C(C)C)[C@@H](C)O)[C@@H](C)O)C(=O)N[C@@H](CCCNC(=N)N)C(=O)N1CCC[C@H]1C(=O)N[C@@H](CCCNC(=N)N)C(=O)N[C@H](N)Cc1ccc(O)cc1 (HELM PEPTIDE1{A.P.L.E.P.V.Y.P.G.D.N.A.T.P.E.Q.M.A.Q.Y.A.A.D.L.R.R.Y.T.N.M.L.I.R.P.R.[N[C@H](Cc1ccc(O)cc1)N[*:1]]}$$$$V2.0) | 17 nM | > 1000 nM | > 5000 nM | 440 nM | Ki [10]: 0.53 nM; EC50 [11]: 11 nM
6 | Ac-RHYINLITRQRY-NH2 | > 1000 nM | > 1000 nM | 1510 nM | > 1000 nM | EC50 [12]: 530 nM; Ki [13]: 7.1 nM; Ki [14]: 10.2 nM; IC50 [15]: 132 nM
7 | CC[C@H](C)[C@H](NC(=O)[C@H](Cc1ccc(O)cc1)NC(=O)[C@H](Cc1cnc[nH]1)NC(=O)[C@H](CCCNC(=N)N)NC(C)=O)C(=O)N[C@@H](CC(N)=O)C(=O)N[C@@H](CC(C)C)C(=O)N[C@H](C(=O)N[C@H](C(=O)N[C@@H](CCCNC(=N)N)C(=O)N[C@@H]1[C@H](C(=O)N[C@@H](CCCNC(=N)N)C(=O)N[C@@H](Cc2ccc(O)cc2)C(N)=O)[C@H]1C(=O)OC)[C@@H](C)O)[C@@H](C)CC (HELM PEPTIDE1{[ac].R.H.Y.I.N.L.I.T.R.[COC(=O)[C@H]1[C@H](N[*:1])[C@@H]1C(=O)[*:2]].R.Y.[am]}$$$$V2.0) |  |  |  |  | Ki [7]: 29 nM; Ki [8]: 118 nM
